Experimental data taken from patent US6773702B2, “Use of combretastatin A4 and its prodrugs as an immune enhancing therapy” (OXiGENE, Inc., priority 2000, dated 2004).
Several values for one entry are separate records, joined by “and”; a condition that tells them apart may be missing. Equal entries are not always repeated.

Tests used:
[1] = tested on: NO production by spleen cells of tumor-free immunized rats; test: NO production by spleen cells (Griess technique) after in vitro preincubation with CA4P; type: cell-based, rat; conditions: for Nitric oxide production into supernatant: unseparated spleen cells (L0), CA4-P 0.15 μg/ml preincubated 3 h
Description: One of the main suppressive molecules produced by macrophages is nitric oxide (NO) and direct assays of the generation of NO released into the medium of parallel spleen cell cultures (containing both adherent and nonadherent cells) after exposure to SEA and CA4P were performed as previously described (Hegardt et al, Cancer Immunol & Immunother (2001) 50: 491-501).
The proliferative response of 3×10^5 admixed non-adherent cells (e.g. T-cells) stimulated for 4 days with SEA (0.05 ng/ml) was estimated as in Example 1. […] This effect is interpreted as due to a decrease of the suppressive effect of the IL-12 and IL-18 activated macrophages on T cell responses. Direct assays of the generation of NO released into the medium of parallel […] spleen cell cultures after exposure to SEA and CA4P were performed as previously described (Hegardt et al, 2001).

[2] = tested on: spleen cells of tumor-free rats immunized with BN7005-H1D2-IL-12 and IL-18 cells; test: Proliferative T cell response (thymidine incorporation) after in vitro preincubation of spleen cells with CA4P; type: cell-based, rat
Text: Macrophages were isolated as plastic-adherent spleen cells from tumor-free rats vaccinated with IL-18 and IL-12 transfected tumor cells. […] This effect is interpreted as due to a decrease of the suppressive effect of IL-12 and IL-18 activated macrophages on T cell responses.
The observation of selective macrophage toxicity is further supported by the observation that CA4P treatment of unseparated spleen cells recapitulates this anti-tumor immune response. FIG. 3 illustrates the in vitro immune proliferative response of unseparated spleen cells isolated from tumor-free rats previously vaccinated with IL-18 and IL-12 transfected tumor cells. Spleen cells were stimulated with untransfected (H1D2-WT) tumor cells (FIG. 3A) or the superantigen SEA polyclonal activator (FIG. 3B) after preincubation with or without CA4P (0.15 μg/ml).
As described in Table 1, spleen cells were isolated from tumor-free BN×WF hybrid rats immunized twice (1 week between vaccinations) with BN7005-H1D2 tumor cells producing IL-18 and IL-12, respectively. Macrophages were isolated from the sample by allowing isolated spleen cells to adhere to the plastic surface of 96-well microtiter plates, at which point the non-adherent cells were removed.
(§1) The purified adherent cells (6×10^5/microtiter well) were treated in vitro for 3 hours with 0.15 ug/ml CA4P before washing. […] These variables were used to choose an in vitro concentration that is equal to the average concentration in vivo after a 3 hour period. For example, after treatment with 2 mg/kg in vivo, the concentration would be a maximum of 0.18 ug/ml 1.5 hours later, and less than 1 ng/ml after 3 hours.
The proliferative response of 3×10^5 admixed non-adherent cells (e.g. T-cells) stimulated for 4 days with SEA (0.05 ng/ml) was estimated as in Example 1. […] This effect is interpreted as due to a decrease of the suppressive effect of the IL-12 and IL-18 activated macrophages on T cell responses. […]

[3] = cited from earlier work
[4] = Half-life and estimated in vivo concentration of CA4P
Description: as §1

[5] = tested on: colon carcinoma H1D2-WT cells; test: Intrahepatic growth of colon carcinoma H1D2-WT, tumor volume after 4 weeks (Table 2); type: in vivo, rat
Description: Table 2 is a summary of intrahepatic growth of colon carcinoma H1D2-WT cells treated with low dose CA4P alone or in combination with immunomodulatory gene therapy, and with or without additional inhibitor. Tumor growth was initiated by inoculation beneath the liver capsule with 1×10^5 in vitro cultured BN7005-H1D2 wild type cells suspended in 50 μl RPMI medium. Drug administration (CA4P, L-NAME, Indomethacin) was initiated after 7-8 days when the tumor was macroscopically visible. CA4P was given intraperitoneally, 5 days a week. L-NAME was given by gavage twice a week on the day of immunization and the day after. Indomethacin was given by gavage 48 h after vaccination at a dose of 0.33 mg/kg. Immunization was performed by intraperitoneal administration on day 10 and day 17 using BN7005-H1D2 cells transfected with IL-18 or a mixture of IL-18 and IL-12 transfectants (2-3×10^6 viable cells per rat).
Wild-type (BN7005-H1D2) colon cancer cells (1×10^5 cells) were inoculated intrahepatically and CA4P drug treatment (2 and 5 mg/kg) began daily when the tumors were macroscopically visible. On day 10 and 17, vaccinations were administered intraperitoneally using […] cells transfected with IL-18 transfected cells or mixtures of IL-18 and IL-12 transfected cells (2-3×10^6 viable cells per rat). L-NAME and Indomethacin were also administered by gavage 48 h after vaccination at a dose of 0.33 mg/kg.

[6] = CA4-P 2 mg/kg alone, no L-NAME, no immunization
[7] = CA4-P 2 mg/kg i.p. 5 days a week, no L-NAME, with immunization, phosphate disodium salt
[8] = CA4-P 2 mg/kg, with L-NAME gavage, with immunization
[9] = CA4-P 5 mg/kg, with L-NAME gavage, with immunization, phosphate disodium salt

## COc1ccc(/C=C\c2cc(OC)c(OC)c(OC)c2)cc1OP(=O)([O-])[O-].[Na+].[Na+] [CA4P, CA4 phosphate disodium salt]
[1]; Rat#1, Medium
  Nitric oxide production into supernatant: 7 µM
[1]; Rat#1, SEA
  Nitric oxide production into supernatant: 8 µM
[1]; Rat#2, Medium
  Nitric oxide production into supernatant: 6 µM
[1]; Rat#2, SEA
  Nitric oxide production into supernatant: 7 µM
[1]; parallel studies (FIG. 3), spleen cells, SEA 0.1 ng/ml, CA4P 0.15 μg/ml
  Animals with inhibitory effect on NO production: all 4
[1]; spleen cell cultures exposed to SEA and CA4P, 2 animals studied
  Effect on NO produced: significant reduction of NO produced
[2]; Rat#1, adherent spleen cells (MO) preincubated 3 h with CA4-P 0.15 μg/ml, then L1 nonadherent cells + SEA 0.05 ng/ml, 4 days
  Proliferative T cell response (CPM thymidine incorporation): 124K
[2]; parallel studies (FIG. 3), spleen cells stimulated with wild type tumor cells and SEA 0.1 ng/ml, CA4P 0.15 μg/ml
  Animals with stimulating effect on proliferative response: 3 of 4
[2]; preincubation of adherent cells (spleen macrophages) with CA4P
  Enhancement of in vitro proliferative response of admixed non-adherent cells: 2 fold
[3]
  Solubility in water: readily soluble in water
[4]; 1.5 hours after treatment with 2 mg/kg in vivo, calculated from half-life and extracellular fluid 16.6% of body weight
  Concentration in extracellular fluid: ≤ 180 ng/mL
[4]; 3 hours after treatment with 2 mg/kg in vivo, calculated
  Concentration in extracellular fluid: less than 1 ng/ml
[5]; [6]
  Tumor volume after 4 weeks, Mean: 3834 mm^3
  Tumor volume after 4 weeks, Median: 4037 mm^3
[5]; [7]
  Tumor volume after 4 weeks, Mean: 3918 mm^3 and 5755 mm^3 and 5135 mm^3 and 3698 mm^3
  Tumor volume after 4 weeks, Median: 3780 mm^3 and 6195 mm^3 and 4275 mm^3 and 3393 mm^3
[5]; CA4-P 2 mg/kg, with L-NAME (+Indomethacin 0.33 mg/kg), with immunization, phosphate disodium salt
  Tumor volume after 4 weeks, Median: 2867 mm^3 and 1463 mm^3 and 1962 mm^3
[5]; [8]
  Tumor volume after 4 weeks, Mean: 5064 mm^3
  Tumor volume after 4 weeks, Median: 4792 mm^3
[5]; [9]
  Tumor volume after 4 weeks, Mean: 512 mm^3 and 561 mm^3
  Tumor volume after 4 weeks, Median: 426 mm^3 and 367 mm^3
